Experimental data reported in patent publication US20150157568A1, “Treatment of Spasticity with Intrathecal Dantrolene” (Allergan, Inc., priority 2013, published 2015).

System: awake spastic rats
Experiment: Spastic rat model (EMG activity during ankle dorsiflexion after spinal cord ischemia)
Assay type: in vivo, Sprague-Dawley rats
Experimental: FIG. 2 describes the rat spasticity model. (A,B) Electromyogram (EMG) responses (recorded from the gastrocnemius muscle) from an awake, but restrained normal and representative spastic rat when the ankle is rotated at velocity of (40°/3 sec) using a computer-controlled ankle rotational device. The presence of spasticity is identified by the appearance of burst EMG activity (active EMG). (C) To calculate the percent of inhibition of spastic muscle activity by a test agent during ankle dorsiflexion, animals were anaesthetized with isoflurane at the end of the experiment and the magnitude of active EMG during ankle dorsiflexion measured under isoflurane anaesthesia is then used as the maximum possible effect and is defined in each spastic animal. All drug treatment data generated after treatment are then normalized in using the maximum effect seen under isoflurane anaesthesia.
Animal: Male Sprague-Dawley rats (approximately 350 gram body weight) were used in the assay. The rats were housed at room temperature (65-82° F.) and relative humidity within the range between 30 to 70%. The room will be illuminated with fluorescent lighting on a daily 12 hour light/dark cycle. All animals will have free access to dry food. Municipal water will be freely available.
Spasticity development and measurement: Rats were exposed to transient spinal cord ischemia by aortic balloon occlusion for 10-12 minutes. Animals with fully developed spasticity will be selected at 4-8 weeks after ischemic injury and prepared for spasticity measurement. Presence of spasticity will be defined by increased peripheral muscle resistance measured during computer-controlled ankle dorsiflexion and correlative changes in EMG (electromyography) activity measured in gastrocnemius muscle (see FIG. 2).
An increased EMG activity induced by ankle dorsiflexion is a consistent and reliable measure of spasticity. Before administration of dantrolene, baseline EMG measurements were conducted. Animals with identified spasticity were then assigned to the experimental groups to be treated with dantrolene or vehicle through intraperitoneal and intrathecal routes.
Intraperitoneal dosing: Three different doses (5, 15, 50 mg/kg) of dantrolene and vehicle were injected intraperitoneally (6 rats per treatment/dose). After dantrolene administration, correlative changes in EMG were recorded at 15, 30, 60, 90, and 120 minutes following intraperitoneal injection. Changes in baseline EMG activity and ankle-rotation evoked EMG activity were then analyzed and the efficacy of treatment on spasticity calculated.
Intrathecal dosing: Animals with identified spasticity were implanted intrathecally with a fine plastic (e.g., PE-10) catheter for bolus drug delivery. Two to three days after intrathecal catheter implantation, the baseline spasticity response was measured and animals were then injected IT with dantrolene (250 μg, 6 rats) and spasticity response was measured for 2 hrs. In control animals (6 rats) vehicle was injected only.

[1] = intraperitoneal (IP), 50 mg/kg, single injection, awake spastic rats

FC(F)OC(Cl)C(F)(F)F (stereo not drawn) [Isoflurane]
effect on spastic activity (positive control, maximal anti-spastic effect) (isoflurane anesthesia at the end of the experiment, defined as 0%): virtually eliminated all spastic activity

O=C1CN(/N=C/c2ccc(-c3ccc([N+](=O)[O-])cc3)o2)C(O)=N1 [dantrolene]
effect of systemic administration on spastic activity (intraperitoneal (IP) injection, 5, 15, 50 mg/kg, awake spastic rats): reduces spastic activity in the awake spastic rats in a dose dependent manner | spastic activity, % of the pre-treatment level (intraperitoneal (IP), 50 mg/kg, single injection, highest dose tested, awake spastic rats): about 30% | duration of reduction of spastic activity [1]: at least 2 hours | reduction of spastic activity [1]: 70% | anti-spastic effect of intrathecal administration (intrathecal (IT), single 250 μg bolus injection, awake spastic rats (n=6), at least as robust as 50 mg/kg systemic): potent anti-spastic effect
